Measurements: patent publication EP3390415B1, “(R)- AND (S)-1-(3-(3-N,N-DIMETHYLAMINOCARBONYL)PHENOXYL-4-NITROPHENYL)-1-ETHYL-N,N'-BIS (ETHYLENE)PHOSPHORAMIDATE, COMPOSITIONS AND METHODS FOR THEIR USE AND PREPARATION” (OBI PHARMA, INC., priority 2015, dated 2017)
Like-named read-outs stand apart in the source and are kept apart here. One block for each molecule: values may come before it.

What was measured:
H460 cells = test: In vitro proliferation assay, H460; assay type: cell-based; conditions: Homo sapiens, NCI-H460; 2 hrs exposure, wash, additional 70hrs, AlamarBlue; read-out: IC 50 in proliferation assay in H460 cells
Description: In vitro proliferation data on the H460 […] human tumor cell line is reported above in the compound table. IC50 values are reported in micromolar and result from exposure of compound at various concentrations for 2 hrs followed by a wash step and addition of fresh media followed by growth and cell viability staining and comparison to a media only treated control.
Specifically, exponentially growing cells were seeded at a density of 4 x 10^3 cells per well in a 96 well plate and incubated at 37°C in 5% CO2, 95% air and 100% relative humidity for 24 hours prior to addition of test compounds. Compounds were solubilized in 100% DMSO at 200 times the desired final test concentration. At the time of drug addition, compounds were further diluted to 4 times the desired final concentration with complete medium. Aliquots of 50 µl of compound at specified concentrations were added to microtiter wells already containing 150 µl of medium, resulting in the final drug concentration reported. After drug addition, the plates were incubated for an additional 2 hours at 37°C, 5% CO2, 95% air, and 100% relative humidity, then the drug was washed off and fresh medium was added and the plates were incubated for addition 70hrs at 37 °C, 5% CO2, 95% air and 100% relative humidity. At the end of this incubation, the viable cells were quantified using the AlamarBlue assay. The drug concentration resulting in growth inhibition of 50% (IC50) was calculated using Prism software (Irvine, CA), and the results were listed in the table.

Recombinant human AKR1C3 = Recombinant human AKR1C3 (Homo sapiens, UniProt P42330); test: Activation by the aldoketo reductase AKR1C3; assay type: biochemical; conditions: 5 µM, 2 mM NADPH, 37 °C, up to 120 min; FIG. 2
Description: Recombinant human AKR1C3 was diluted to 25 µg/mL in phosphate buffered saline (PBS), pH 7.4 (37 °C), containing 2 mM NADPH. TH2870 or progesterone (positive control) in 30% methanol/70% water was added to the reaction mixture at a final concentration of 5 µM and incubated at 37 °C for 120 minutes. At various times up to 120 min, 50 µL of the reaction mixture was taken and 200 µL acetonitrile containing propranolol as internal standard was added, vortex-mixed and centrifuged for 10 min. The resulting supernatant (5 µL) was injected into a LC/MS/MS for quantitation of % remaining TH 2870 and progesterone. The compounds were tested in duplicates.

HepG2 = test: In vitro human tumor cell line cytotoxicity assay; assay type: cell-based; conditions: for IC50: Homo sapiens
C3A = test: In vitro human tumor cell line cytotoxicity assay; assay type: cell-based; conditions: for IC50: Homo sapiens
HCCC9810 = test: In vitro human tumor cell line cytotoxicity assay; assay type: cell-based; conditions: for IC50: Homo sapiens
PLCPRF5 = test: In vitro human tumor cell line cytotoxicity assay; assay type: cell-based; conditions: for IC50: Homo sapiens
SNU-387 = test: In vitro human tumor cell line cytotoxicity assay; assay type: cell-based; conditions: for IC50: Homo sapiens
LIXC012 = test: In vitro human tumor cell line cytotoxicity assay; assay type: cell-based; conditions: for IC50: Homo sapiens
Vcap = test: In vitro human tumor cell line cytotoxicity assay; assay type: cell-based; conditions: for IC50: Homo sapiens, VCaP; for Max Inhibition% / Min Inhibition%: Vcap
[1] = tested on: A375 melanoma human tumor xenograft; test: In vivo human tumor xenograft model, antitumor activity; design: species or system nude mice; conditions: 20mpk,qdx5x2,ip
Description: Specific pathogen-free homozygous female nude mice (nu/nu, Charles River Laboratories) were used. Mice were given food and water ad libitum and housed in microisolator cages. Four to six week old animals were identified by microchips (Locus Technology, Manchester, MD, USA) at the time of the experiments. All animal studies were approved by the Institutional Animal Care and Use Committee at Threshold Pharmaceuticals, Inc.
All cell lines were from the American Type Culture Collection (ATCC, Rockville, MD, USA).
Cells were mixed with Matrigel (30% in H460) and 0.2 ml per mouse were subcutaneously implanted to the flank area of the animals. When tumor size reached 100-150 mm^3, mice were randomized into experimental or vehicle groups with 10 mice/group and treatment was started (Day 1). The tested compounds were formulated in 5% DMSO in D5W. All compounds were given by IP, QDx5/wk (5 days on, 2 days off) as one cycle, for a total of 2 cycles. Tumor growth and body weight were measured twice a week. Tumor volume was calculated as (length x width^2)/2. Drug efficacy was assessed as Tumor Growth Inhibition (TGI) and Tumor Growth Delay (TGD). TGI was defined as (1-ΔT/ΔC) x 100, where ΔT/ΔC presented the ratio of the change in mean (or median, if variation within the group was relatively large) tumor volume of the treated group and of the control group. TGD was calculated as the extra days for the treated tumor to reach 500mm^3 as compared to the control group. Animals were culled when individual tumor size reached over 2000mm^3 or mean tumor volume exceeded 1000mm^3 in the group. Data are expressed as the mean ± SEM. One-way analysis of variance with Dunnett post comparison test (GraphPad Prism 4) or two-tailed student's t-test were used for analysis. A P level < 0.05 was considered statistically significant.
This study employed an A375 melanoma human tumor xenograft model and the compounds provided herein were compared to thiotepa and the approved anti melanoma drug, Abraxane. […] Mpk refers to mg/kg.

[2] = Pharmacokinetics (TK) after 30-min IV infusion in monkeys; assay type: in vivo, Cynomolgus monkeys; conditions: 2 mg/kg 30-min IV infusion; for MRT inf / clearance / half-life / Vd / concentration at 0.25 hr / concentration at 0.5 hr / concentration at 0.75 hr / concentration at 1 hr / concentration at 2 hr: cynomolgus monkey, plasma; for half-life: read-out: Terminal t1/2 (converted); for Vd: read-out: Vss
Description: (§1) TH 3423 and TH 3424 were tested in no naive monkeys (1 male and one female for each compound at 2 mg/kg) with 30-min intravenous infusion, TK sampling: on Day 1 and Day 15: 0.25, 0.5, 0.75, 1 and 2 hr post infusion initiation. Serum chemistry and hematology: pre-dose (Day 1), day 5, day 8 (pre-dose), day 15 (pre-dose), day 22 and day 28. Clinical observation: Daily during the study, total 35 days. Food consumption: Daily during the study, total 35 days. Bodyweight measurement: Twice weekly for five weeks.

[3] = Acute toxicity study in monkeys, body weight; assay type: in vivo, Cynomolgus monkeys; design: unit not given here; conditions: 2 mg/kg IV infusion
Description: as §1

[4] = both sexes, mean, read-out: Plasma concentration, Mean
[5] = female, read-out: Plasma concentration
[6] = male, read-out: Plasma concentration

Sequence of Recombinant human AKR1C3 (P42330 whole entry): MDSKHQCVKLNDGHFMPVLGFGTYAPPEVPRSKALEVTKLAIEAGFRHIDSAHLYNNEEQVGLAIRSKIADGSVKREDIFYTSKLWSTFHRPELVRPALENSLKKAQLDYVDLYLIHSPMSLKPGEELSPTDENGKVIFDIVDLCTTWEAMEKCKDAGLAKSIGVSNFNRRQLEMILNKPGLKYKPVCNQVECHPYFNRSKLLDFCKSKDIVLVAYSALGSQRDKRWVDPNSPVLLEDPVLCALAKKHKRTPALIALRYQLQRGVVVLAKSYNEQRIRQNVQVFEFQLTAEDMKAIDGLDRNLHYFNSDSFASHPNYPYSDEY

IC50 (H460 cells): 5 nM | disappearance of compound (% remaining) in the presence of AKR1C3 (Recombinant human AKR1C3): rapid disappearance
SMILES: CC(OP(=O)(N1CC1)N1CC1)c1ccc([N+](=O)[O-])c(Oc2cccc(C(=O)N(C)C)c2)c1 (racemic) [TH 2870, (R,S)-1-(3-(3-N,N-dimethylaminocarbonyl)phenoxyl-4-nitrophenyl)-1-ethyl-N,N'-bis(ethylene)phosphoramidate]
Max Inhibition% (HepG2): 98.9% | Min Inhibition% (HepG2): 3.3% | IC50 (HepG2; read-out: AbsIC50): 6.4 nM | IC50 (HepG2; read-out: RelIC50): 5.5 nM | Max Inhibition% (C3A): 98.1% | Min Inhibition% (C3A): 8.1% | IC50 (C3A; read-out: AbsIC50): 6.2 nM | IC50 (C3A; read-out: RelIC50): 7.1 nM | Max Inhibition% (HCCC9810): 95.4% | Min Inhibition% (HCCC9810): -2.6% | IC50 (HCCC9810; read-out: AbsIC50): 29.4 nM | IC50 (HCCC9810; read-out: RelIC50): 29.2 nM | Max Inhibition% (PLCPRF5): 53.3% | Min Inhibition% (PLCPRF5): -1.7% | IC50 (PLCPRF5; PLC-PRF-5, read-out: AbsIC50): 575 nM | IC50 (PLCPRF5; PLC-PRF-5, read-out: RelIC50): 474 nM | Max Inhibition% (SNU-387): 102.8% | Min Inhibition% (SNU-387): 1.7% | IC50 (SNU-387; read-out: AbsIC50): 34 nM | IC50 (SNU-387; read-out: RelIC50): 42.2 nM | Max Inhibition% (LIXC012): 87.1% | Min Inhibition% (LIXC012): 6.6% | IC50 (LIXC012; read-out: AbsIC50): 18.7 nM | IC50 (LIXC012; read-out: RelIC50): 27.4 nM | IC50 (Vcap; read-out: AbsIC50): 15.2 nM | IC50 (Vcap; read-out: RelIC50): 22.7 nM | Max Inhibition% (Vcap): 100.2% | Min Inhibition% (Vcap): -3.4% | TGD500, Days (vs. vehicle) [1]: >13 days | TGI [1]: 98.0%

SMILES: C[C@@H](OP(=O)(N1CC1)N1CC1)c1ccc([N+](=O)[O-])c(Oc2cccc(C(=O)N(C)C)c2)c1 (single isomer, unassigned) [TH3423]
IC50 (H460 cells): 5 nM | Max Inhibition% (HepG2): 99.5% | Min Inhibition% (HepG2): -7.2% | IC50 (HepG2; read-out: AbsIC50): 18.7 nM | IC50 (HepG2; read-out: RelIC50): 13.1 nM | Max Inhibition% (C3A): 98.5% | Min Inhibition% (C3A): 5.4% | IC50 (C3A; read-out: AbsIC50): 11.7 nM | IC50 (C3A; read-out: RelIC50): 9.6 nM | Max Inhibition% (HCCC9810): 93.7% | Min Inhibition% (HCCC9810): 0.0% | IC50 (HCCC9810; read-out: AbsIC50): 18.7 nM | IC50 (HCCC9810; read-out: RelIC50): 16.8 nM | Max Inhibition% (PLCPRF5): 77.7% | Min Inhibition% (PLCPRF5): -4.9% | IC50 (PLCPRF5; PLC-PRF-5, read-out: AbsIC50): 207 nM | IC50 (PLCPRF5; PLC-PRF-5, read-out: RelIC50): 156 nM | Max Inhibition% (SNU-387): 99.8% | Min Inhibition% (SNU-387): 1.3% | IC50 (SNU-387; read-out: AbsIC50): 39.7 nM | IC50 (SNU-387; read-out: RelIC50): 46.3 nM | Max Inhibition% (LIXC012): 84.8% | Min Inhibition% (LIXC012): -1.1% | IC50 (LIXC012; read-out: AbsIC50): 16.9 nM | IC50 (LIXC012; read-out: RelIC50): 8.1 nM | IC50 (Vcap; read-out: AbsIC50): 21.6 nM | IC50 (Vcap; read-out: RelIC50): 26.6 nM | Max Inhibition% (Vcap): 101.0% | Min Inhibition% (Vcap): 1.1% | AUCINF ([2]; Mean): 770 hr^∗ng/mL | AUClast ([2]; Mean): 766 hr^∗ng/mL | MRT inf ([2]; both sexes, Mean): 12.2 min | clearance ([2]; both sexes, Mean): 43.3 mL/min/kg | half-life ([2]; both sexes, Mean): 7.74 min | Vd ([2]; both sexes, Mean): 0.527 L/kg | concentration at 0.25 hr [2, 4]: 1210 ng/mL | concentration at 0.5 hr [2, 4]: 1400 ng/mL | concentration at 0.75 hr [2, 4]: 336 ng/mL | concentration at 1 hr [2, 4]: 70 ng/mL | concentration at 2 hr ([2]; both sexes, mean, 2 hr, read-out: Plasma concentration, Mean): 1.03 ng/mL | concentration at 0.25 hr [2, 5]: 1320 ng/mL | concentration at 0.5 hr [2, 5]: 1370 ng/mL | concentration at 0.75 hr [2, 5]: 313 ng/mL | concentration at 1 hr [2, 5]: 55 ng/mL | MRT inf ([2]; female): 10.8 min | clearance ([2]; female): 43.5 mL/min/kg | half-life ([2]; female): 6.48 min | Vd ([2]; female): 0.469 L/kg | concentration at 0.25 hr [2, 6]: 1100 ng/mL | concentration at 0.5 hr [2, 6]: 1420 ng/mL | concentration at 0.75 hr [2, 6]: 359 ng/mL | concentration at 1 hr [2, 6]: 85 ng/mL | concentration at 2 hr ([2]; male, 2 hr, read-out: Plasma concentration): 1.03 ng/mL | MRT inf ([2]; male): 13.6 min | clearance ([2]; male): 43.2 mL/min/kg | half-life ([2]; male): 9 min | Vd ([2]; male): 0.584 L/kg | Plasma concentration ([2]; female, 2 hr): BQL | AUCINF ([2]; female): 766 hr^∗ng/mL | AUClast ([2]; female): 758 hr^∗ng/mL | AUCINF ([2]; male): 774 hr^∗ng/mL | AUClast ([2]; male): 773 hr^∗ng/mL | body weight ([3]; Mean, Day 1): 3.50 | body weight ([3]; Mean, Day 4): 3.39 | body weight ([3]; Mean, Day 8): 3.32 | body weight ([3]; Mean, Day 11): 2.96 | body weight ([3]; female, Day 1): 3.65 | body weight ([3]; female, Day 4): 3.55 | body weight ([3]; female, Day 8): 3.41 | body weight ([3]; female, Day 11): 2.96 | body weight ([3]; male, Day 1): 3.35 | body weight ([3]; male, Day 4): 3.23 | body weight ([3]; male, Day 8): 3.23 | body weight ([3]; male, Day 11): 2.95

disappearance of compound (% remaining) in the presence of AKR1C3 (Recombinant human AKR1C3): reduced slowly
SMILES: CC(=O)[C@H]1CC[C@H]2[C@@H]3CCC4=CC(=O)CC[C@]4(C)[C@H]3CC[C@]12C [Progesterone, reference compound]
